{"source": "paper PMC5698418", "about": "(Nature Communications, 2017)", "key": {"acetyl-H3K9": {"system": "acetyl-H3K9", "test": "Acetyl-H3K9 immunofluorescence in neuronal nuclei (multiplexed in screen)", "assay_type": "cell-based, mouse", "protocol": "To increase the throughput of our pharmacological screening for modulators of Arc, the above mentioned assay was adapted to cultures of mouse primary cortical neurons in 96-well plates.\nScreening of compounds in the chemogenomic library was carried out using DIV13 primary forebrain cortical neurons cultured on poly-L-lysine/laminin-coated 96-well plates (Ibidi USA, Madison, WI). Cells were seeded at a density of 30,000 cells per well and treated with the compound library and BDNF according to the experimental design presented in Fig. 3a. After experimental treatment, cells were processed for Arc and acetyl-H3K9 immunocytochemistry according to the protocol described above. Both antigens (Arc and acetyl-H3K9) were imaged using an IN Cell Analyzer 6000 imaging system and a ×40 objective. […] High-throughput quantification of nuclear Arc immunofluorescence signal was performed in a similar fashion than the low-throughput procedure described above but with the exception that acetyl-H3K9 was used as a nuclear mask to guide the automated quantification of nuclear Arc immunofluorescence signal."}, "surface GluA1": {"system": "surface GluA1", "test": "Surface AMPAR (GluA1) imaging along dendrites", "assay_type": "cell-based, mouse", "conditions": "16.7 µM, 6 h with BDNF, vs untreated and BDNF alone; for BDNF: BDNF alone vs baseline", "protocol": "Our procedure to label surface AMPARs containing the GluA1 subunit was adapted from two reports[14],[61]. Precisely, DIV14 primary cortical neurons cultured on coverslips were rinsed once with room temperature PBS^MC (PBS containing 0.5 mM CaCl2, 1 mM MgCl2, and 4% sucrose). Live cells were then incubated for 30 min at room temperature with GluA1 primary antibody solution (PBS^MC with antibody against the extracellular N-terminus of GluA1 (EMD Millipore Corp, clone RH95, 5.0 µg ml^−1)). Next, cells were rinsed twice with ice-cold PBS^MC followed by fixation with 4% paraformaldehyde + 4% sucrose solution for 15 min at room temperature. After fixation, neurons were washed with regular PBS and then incubated overnight with Map2 primary antibody solution (PBS with 0.125% Triton X-100, 5% normal goat serum, and anti-Map2 antibody) to label dendrites. Next day, coverslips were washed with PBS, incubated with appropriate secondary antibodies for 1 h at room temperature, and finally mounted on glass slides with ProLong Antifade reagent (Invitrogen).\n(§1) Quantification of surface GluA1 puncta was performed according to the following strategy. First, overlapping digital images of GluA1 and Map2 immunostainings were collected using a Zeiss AxioObserver Z1 inverted microscope and ×63 oil immersion objective. Second, thresholding and segmentation based on the Map2 images was used to remove GluA1 signals outside of dendritic processes. Importantly, the same background/foreground cutoff threshold was used for images of all experimental conditions. Third, the length of dendrites for each image set was measured and recorded. Finally, distinct GluA1 foreground objects along dendrites >5 pixels were counted using the particle analysis tool in ImageJ and presented as the average number of GluA1 puncta per µm of dendrite length for each experimental condition."}, "[1]": {"system": "Arc puncta in dendrites of primary cortical neurons", "test": "Arc puncta along Map2-labeled dendrites (immunocytochemistry)", "assay_type": "cell-based, mouse", "conditions": "16.7 µM with BDNF, vs untreated and BDNF alone; for BDNF: BDNF alone vs untreated", "from_the_text": "Chemical structure of each compound is presented on top. b Graphs show mean (n = 5) Arc/β-actin ratio (±SEM) for cells treated as in a. […] Tukey’s HSD post hoc test, *p < 0.05; **p < 0.01, ***p < 0.005; ****p < 0.0001. […] Representative captures of DIV14 mouse primary cortical neurons from each experimental condition co-immunostained for Arc (red fluorophore) and Map2 (green fluorophore). White arrowheads show examples of discrete Arc puncta. […] Tukey’s HSD post hoc test, *p < 0.05; ***p < 0.005; ****p < 0.0001\n(§2) Indirect immunofluorescence detection of antigens was carried out using cortical neurons cultured on poly-L-lysine/laminin-coated coverslips in 24-well plates at a density of 0.1 × 10^7 per well. After experimental treatment, cells were washed twice with PBS and fixed for 30 min at room temperature with 4% paraformaldehyde in PBS. After fixation, cells were washed twice with PBS, permeabilized with PBST (PBS + 0.25% Triton X-100) for 20 min, blocked in blocking solution (PBS + 5% normal goat serum) for another 30 min, and finally incubated overnight at 4 °C with the first primary antibody in blocking solution. The next day, coverslips were extensively washed with PBS and incubated for 2 h at room temperature in the appropriate fluorophore-conjugated secondary antibody solution (Alexa 488- or Alexa 594-conjugated secondary antibody (Molecular Probes, Invitrogen) in blocking solution). After washing with PBS, the coverslips were incubated again overnight in primary antibody solution for the second antigen, and the procedure for conjugation of the fluorophore-conjugated secondary antibody was repeated as above. Finally, cell nuclei were counterstained with 4′,6-diamidino-2-phenylindole (DAPI), and coverslips were mounted on glass slides with ProLong Antifade reagent (Invitrogen).\nas §1"}, "HDAC2": {"biological_target": "T1, HDAC2 (Homo sapiens, UniProt Q92769)", "T1 construct": "purchased BPS Bioscience (San Diego, CA), contract assay service", "T1 sequence (Q92769 whole entry)": "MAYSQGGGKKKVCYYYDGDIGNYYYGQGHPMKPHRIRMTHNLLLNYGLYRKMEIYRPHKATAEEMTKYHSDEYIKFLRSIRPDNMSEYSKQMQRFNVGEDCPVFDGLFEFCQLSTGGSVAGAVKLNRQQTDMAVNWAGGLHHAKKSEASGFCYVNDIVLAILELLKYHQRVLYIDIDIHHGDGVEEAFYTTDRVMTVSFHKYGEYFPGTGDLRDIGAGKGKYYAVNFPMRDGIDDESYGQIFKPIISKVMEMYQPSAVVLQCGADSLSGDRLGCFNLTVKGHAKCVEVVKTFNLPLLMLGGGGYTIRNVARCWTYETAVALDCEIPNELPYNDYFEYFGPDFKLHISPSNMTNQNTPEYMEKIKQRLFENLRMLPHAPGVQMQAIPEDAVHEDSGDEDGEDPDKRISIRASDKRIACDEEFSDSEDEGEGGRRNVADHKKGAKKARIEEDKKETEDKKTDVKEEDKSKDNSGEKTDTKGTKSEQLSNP", "test": "Biochemical HDAC assay (BPS Bioscience), HDAC2", "conditions": "25 µM"}, "HDAC1": {"biological_target": "T2, HDAC1 (Homo sapiens, UniProt Q13547)", "T2 construct": "purchased BPS Bioscience (San Diego, CA), contract assay service", "T2 sequence (Q13547 whole entry)": "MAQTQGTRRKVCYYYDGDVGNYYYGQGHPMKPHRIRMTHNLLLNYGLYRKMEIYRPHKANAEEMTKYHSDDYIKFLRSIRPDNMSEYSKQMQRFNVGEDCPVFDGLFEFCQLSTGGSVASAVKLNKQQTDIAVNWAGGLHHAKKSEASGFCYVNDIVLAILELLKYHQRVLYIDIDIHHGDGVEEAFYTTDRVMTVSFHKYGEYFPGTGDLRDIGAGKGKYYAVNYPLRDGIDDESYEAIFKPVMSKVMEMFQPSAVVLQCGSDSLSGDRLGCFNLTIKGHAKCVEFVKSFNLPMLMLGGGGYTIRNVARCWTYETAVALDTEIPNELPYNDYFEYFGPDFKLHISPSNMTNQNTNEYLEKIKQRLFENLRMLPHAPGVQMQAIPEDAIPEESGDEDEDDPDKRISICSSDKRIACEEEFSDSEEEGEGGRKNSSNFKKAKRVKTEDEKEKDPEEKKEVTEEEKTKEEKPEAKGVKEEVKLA", "test": "Biochemical HDAC assay (BPS Bioscience), HDAC1", "conditions": "25 µM"}, "[2]": {"system": "BDNF-induced nuclear Arc expression in primary cortical neurons", "test": "Chemogenomic screen: high-content image-based assay of BDNF-induced nuclear Arc expression (96-well)", "assay_type": "cell-based, mouse", "procedure,_shortened": "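Nuclear Arc immunofluorescence is quantified automatically within an acetyl-H3K9-defined nuclear mask from ×40 images. Cultures are DIV13 mouse forebrain cortical neurons seeded at 30,000 per well and exposed to BDNF plus compound at a final 16.7 µM, with triplicate biological replicates.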"}, "HDAC3": {"biological_target": "T3, HDAC3 (Homo sapiens, UniProt O15379)", "T3 construct": "purchased BPS Bioscience (San Diego, CA), contract assay service", "T3 sequence (O15379 whole entry)": "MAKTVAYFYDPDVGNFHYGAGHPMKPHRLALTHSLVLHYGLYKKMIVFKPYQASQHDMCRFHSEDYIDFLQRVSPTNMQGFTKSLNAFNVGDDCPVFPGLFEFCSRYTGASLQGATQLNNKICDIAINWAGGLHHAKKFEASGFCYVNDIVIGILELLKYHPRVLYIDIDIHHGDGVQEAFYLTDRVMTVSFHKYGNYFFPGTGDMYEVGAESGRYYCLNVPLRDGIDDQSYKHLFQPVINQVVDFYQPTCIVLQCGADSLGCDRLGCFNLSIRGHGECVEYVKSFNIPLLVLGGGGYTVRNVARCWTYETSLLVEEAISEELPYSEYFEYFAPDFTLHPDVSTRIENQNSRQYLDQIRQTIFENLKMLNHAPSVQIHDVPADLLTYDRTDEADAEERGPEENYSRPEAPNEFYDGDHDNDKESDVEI", "T3 sequence (Q9Y618 395-489 partner limits assumed)": "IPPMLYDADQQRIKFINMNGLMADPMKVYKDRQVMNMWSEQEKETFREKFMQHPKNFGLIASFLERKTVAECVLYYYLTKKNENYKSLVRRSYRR", "test": "Biochemical HDAC assay (BPS Bioscience), HDAC3", "conditions": "25 µM"}, "Arc mRNA": {"system": "Arc mRNA", "test": "Arc mRNA by real-time RT-PCR in primary cortical neurons", "assay_type": "cell-based, mouse", "conditions": "6 h BDNF plus U0126 10 µM or NSC23766 200 µM", "protocol": "After experimental treatment, total RNA was isolated from primary cortical neuron cultures using the TRIzol method (Invitrogen). The concentration of total RNA was measured using a NanoDrop 1000 spectrophotometer (Thermo Fisher Scientific, Rockford, IL) and first-strand complementary DNA (cDNA) was synthesized using the iScript cDNA Synthesis Kit (Bio-Rad, Hercules, CA). Real-time PCRs were performed using gene-specific primers and monitored by quantification of SYBR Green I fluorescence using a Bio-Rad CFX96 Real-Time Detection System. Expression was normalized against Gapdh expression. The relative quantification from at least three biological replicates was performed using the comparative cycle threshold (∆∆CT) method.\nPrimers for real-time reverse transcription PCR experiments were: Arc, 5′-[…]-3′ (forward) and 5′-[…]-3′ (reverse); Map2, 5′-[…]-3′ (forward) and 5′-[…]-3′ (reverse); GluA1, 5′-[…]-3′ (forward) and 5′-[…]-3′ (reverse); GluA2, 5′-[…]-3′ (forward) and 5′-[…]-3′ (reverse); Gapdh, 5′-[…]-3′ (forward) and 5′-[…]-3′ (reverse)."}, "[3]": {"system": "nuclear Arc in primary cortical neurons", "test": "Low-throughput nuclear Arc immunofluorescence assay (coverslips, Map2-positive cells)", "assay_type": "cell-based, mouse", "from_the_text": "Next, using fluorescent immunocytochemistry we assessed to what extent the observed induction of total Arc protein expression measured by western blotting corresponded to an accumulation of Arc in the nucleus of our cultured neurons. We chose to focus on nuclear Arc at this point based on the assumption that it would provide a robust and easily tractable phenotype for testing a large set of compounds with the help of a quantitative, single-cell level, high-content, image-based screen. […] On the other hand, many but not all of the neurons in cultures that were treated with BDNF for 6 h had high levels of Arc in their nuclei (Fig. 2b). […] Finally, to further evaluate the sensitivity of our method to quantify nuclear Arc expression, we tested four pharmacological inhibitors predicted to prevent BDNF-induced Arc expression. […] These experimental results with known mechanism of action compounds critically guided the design and interpretation of the chemogenomic screen performed next.\nas §2\nCells cultured on coverslips from three independent biological replicates were imaged with an IN Cell Analyzer 6000 high-performance laser-based confocal imaging system and a ×40 objective (GE Healthcare Life Sciences, Marlborough, MA). Image preparation, assembly, and analysis were performed with ImageJ (NIH) and Photoshop CS. Change in contrast and evenness of the illumination was applied equally to all images presented in the study. The following procedure was used for low-throughput measurements. First, original raw tiff files were opened in ImageJ, the nucleus of all neurons in the image was located based on Map2 immunostaining, then average pixel intensity corresponding to Arc immunofluorescence was measured for a 30-pixel spot positioned at the center of the nuclear compartment. Second, for each measure of Arc nuclear immunofluorescence pixel intensity, a measure of background pixel intensity from the same image channel was acquired and subsequently subtracted from the Arc nuclear immunofluorescence pixel intensity value. Finally, Arc immunofluorescence signal from untreated samples was used to establish an objective threshold (two standard deviations above the nuclear Arc immunofluorescence signal averaged from a representative population of untreated neurons) and allow comparison of nuclear Arc expression between different experimental conditions."}, "Arc protein": {"system": "Arc protein", "test": "Western blot of total Arc protein in primary cortical neurons", "assay_type": "cell-based, mouse", "conditions": "6 h; BDNF 100 ng ml−1 or 4AP 40 µM + Bic 50 µM", "description": "Forebrains of E16.5 C57BL/6 mouse embryos were dissected and then dissociated in trypsin solution for 15 min followed by three washes with phosphate-buffered saline (PBS). Single-cell suspension was achieved by gentle pipet trituration. Neurons were seeded in poly-L-lysine/laminin-coated six-well plates at a density of 2 × 10^6 per well and maintained in neurobasal medium containing B27 supplement (2%, Invitrogen, Grand Island, NY), penicillin (50 units ml^−1, Invitrogen), streptomycin (50 µg ml^−1, Invitrogen), and glutamine (1 mM, Sigma). For experiments involving BDNF (EMD Millipore Corps, Billerica, MA), the stock solution (2 ng µl^−1 in water) was added directly to the culture medium at a final concentration of 100 ng ml^−1 for the indicated period of time.\nFor western blot analyses, cells were collected by scraping in ice-cold radioimmunoprecipitation assay (RIPA) buffer (50 mM Tris-HCl (pH 8.0), 300 mM NaCl, 0.5% Igepal-630, 0.5% deoxycholic acid, 0.1% SDS, 1 mM EDTA) supplemented with a cocktail of protease inhibitors (Complete Protease Inhibitor without EDTA, Roche Applied Science, Indianapolis, IN) and phosphatase inhibitors (phosphatase inhibitor cocktail A, Santa Cruz Biotechnology). One volume of 2× Laemmli buffer (100 mM Tris-HCl (pH 6.8), 4% SDS, 0.15% bromophenol blue, 20% glycerol, 200 mM β-mercaptoethanol) was added and the extracts were boiled for 5 min. Samples were adjusted to an equal concentration after protein concentrations were determined using the BCA assay (Pierce, Thermo Fisher Scientific). Lysates were separated using SDS–PAGE and transferred to a nitrocellulose membrane. After transfer, the membrane was blocked in TBST (Tris-buffered saline + 0.1% Tween 20) supplemented with 5% nonfat powdered milk and probed with the indicated primary antibody at 4 °C overnight. After washing with TBST, the membrane was incubated with the appropriate secondary antibody and visualized using enhanced chemiluminescence (ECL) reagents according to the manufacturer’s guidelines (Pierce, Thermo Fisher Scientific).\nThe following procedure was used to quantify western blots. First, equal quantity of protein lysate was analyzed by SDS–PAGE for each biological replicate. Second, the exposure time of the film to the ECL chemiluminescence was the same for each biological replicate. Third, all the exposed films were scanned on a Brother MFC-J485DW scanner in grayscale at a resolution of 300 dpi. Fourth, the look-up table (LUT) of the scanned tiff images was inverted and the intensity of each band was individually measured using the selection tool and the histogram function in Adobe Photoshop CC 2015 software. […]"}}, "data": [{"molecule": "CC(=O)Nc1ccc(C(=O)Nc2ccccc2N)cc1", "note": "[CI-994]", "values": [{"measurement": "impact on acetyl-H3K9 immunofluorescence (Z-score)", "setting": "acetyl-H3K9; screen, 16.7 µM", "result": "strong impact"}, {"measurement": "surface GluA1 puncta per dendrite µm", "setting": "surface GluA1", "result": "significant decrease in surface GluA1 levels"}, {"measurement": "number of Arc puncta in dendritic projections", "setting": "[1]", "result": "significantly greater number of Arc puncta"}, {"measurement": "inhibitory activity toward HDAC2", "setting": "HDAC2", "result": "potent inhibition"}, {"measurement": "inhibitory activity toward HDAC1", "setting": "HDAC1", "result": "potent inhibition"}, {"measurement": "occurrence of neuronal nuclei with above threshold nuclear Arc immunofluorescence signal, factor in relation to control (DMSO plus BDNF)", "setting": "[2]; 16.7 µM, BDNF", "result": "≥ 1.5"}, {"measurement": "Percentage of cell with nuclear Arc immunostaining above 2σ threshold", "setting": "[2]; chemogenomic (SMART) screen, BDNF-induced nuclear Arc expression, primary cortical neurons, BDNF control 19.5", "result": 29.1, "unit": "%"}, {"measurement": "inhibitory activity toward HDAC3", "setting": "HDAC3", "result": "potent inhibition"}]}, {"molecule": "CCN(CC)CCCC(C)Nc1nc(C)cc(Nc2ccc3nc(C)cc(N)c3c2)n1", "note": "(centres unmarked) [NSC23766]", "values": [{"measurement": "effect on BDNF-induced Arc mRNA expression (RT-qPCR)", "setting": "Arc mRNA", "result": "prevented BDNF-induced Arc expression but not Rac1 inhibition by NSC23766"}]}, {"molecule": "N#CC(=C(/N)Sc1ccccc1N)/C(C#N)=C(/N)Sc1ccccc1N", "note": "[U0126]", "values": [{"measurement": "effect on BDNF-induced increase of nuclear Arc", "setting": "[3]; co-treated with BDNF 6 h, k252a 100 nM, ActD 2 ng ml−1, CHX 50 µg ml−1, U0126 10 µM", "result": "effectively prevented the increase of nuclear Arc"}, {"measurement": "effect on BDNF-induced Arc mRNA expression (RT-qPCR)", "setting": "Arc mRNA", "result": "prevented BDNF-induced Arc expression"}]}, {"molecule": "BDNF: recombinant brain-derived neurotrophic factor, 100 ng ml−1 (protein, UniProt P23560 19-247, looked up) Neurotrophic factor BDNF …: APMKEANIRGQGGLAYPGVRTHGTLESVNGPKAGSRGLTSLADTFEHVIEELLDEDQKVRPNEENNKDADLYTSRVMLSSQVPLEPPLLFLLEEYKNYLDAANMSMRVRRHSDPARRGELSVCDSISEWVTAADKKTAVDMSGGTVTVLEKVPVSKGQLKQYFYETKCNPMGYTKEGCRGIDKRHWNSQCRTTQSYVRALTMDSKKRIGWRFIRIDTSCVCTLTIKRGR", "values": [{"measurement": "acetyl-H3K9 immunofluorescence intensity levels in primary cortical neurons", "setting": "acetyl-H3K9; BDNF 6 h", "result": "unaffected"}, {"measurement": "surface GluA1 puncta per dendrite µm", "setting": "surface GluA1", "result": "did not influence, in one way or the other, the number of GluA1 puncta"}, {"measurement": "neurons with Arc-specific nuclear average pixel intensity above threshold (> 2σ of untreated)", "setting": "[3]; BDNF 100 ng ml−1, 6 h, n = 331 neurons", "result": 17.5, "unit": "%"}, {"measurement": "neuronal nuclei with above threshold average nuclear Arc signal (> 2σ)", "setting": "[3]; BDNF 24 h, n = 334", "result": 4.2, "unit": "%"}, {"measurement": "number of Arc puncta in dendritic projections", "setting": "[1]", "result": "did not observe a significant difference"}, {"measurement": "Arc protein abundance vs untreated control (western blot)", "setting": "Arc protein", "result": "significantly more Arc protein"}]}]}
